In patent publication US20120196899A1, “METHODS AND PRODUCTS FOR TREATING INFLAMMATION” (Rock Creek Pharmaceuticals, Inc., priority 2010, published 2012):
Read-outs that look alike come from different tables or passages of the source.

Assay: Plasma toxicokinetics after single i.v. bolus
Type: in vivo, Sprague-Dawley rats
Details: for concentration at 4 h / concentration at 6 h / concentration at 1 h / concentration at 2 h / concentration at 8 h / concentration at 0.5 h / half-life: Sprague-Dawley, rat, plasma; for concentration at 4 h / concentration at 6 h / concentration at 1 h / concentration at 2 h / concentration at 8 h / concentration at 0.5 h: intravenous; for half-life: iv
Description: Six rats (3 males and 3 females) were dosed per dose group. […] Plasma and brain homogenates were stored at −80° C. until analysis.
An additional 48 rats (24 males and 24 females) received a single intravenous dose via the tail vein at the same doses as mentioned above. At 30 and 360 minutes post administration, 6 rats (3 males and 3 females) per dose group, per time point were euthanized, bled via cardiac puncture, and perfused, and brains were collected. The brains were homogenized. Blood was spun, and plasma was collected. Plasma and brain homogenate were stored at −80° C.
Four aliquots of each dose level formulation were collected and stored at −80° C. The test compound, corresponding dose level, number of animals, and sample collection times for Phase I of the study are shown in Table 3. The test compound, corresponding dose level, number of animals, and sample collection times for Phase II of the study are shown in Table 4. The physical signs of each animal were monitored following administration of the test compound.
The animals were weighed prior to dosing and received a single i.v. dose of either test compound at a volume of 5 mL/kg. Blood was collected via the venus plexus (retro-orbital) into tubes containing (K2) EDTA. No more than 0.5 mL was collected per time point. […] The brain was removed, weighed, homogenized in sterile 0.9% saline at a volume equal to its weight, and stored at −80° C.
Plasma was separated according to the instructions for MICROTAINER® brand collection tubes (3 minutes, 2000×g). Plasma was decanted into microfuge tubes and stored at −80° C. Remaining test compound was stored at −80° C.
The signal was optimized for each compound by electrospray ionization (ESI) positive or negative ionization mode. A single ion mode (SIM) scan was used to optimize the Fragmentor for the precursor ion and a product ion analysis was used to identify the best fragment for analysis and to optimize the collision energy. The fragment which gave the most sensitive and specific signal was chosen.
Sample preparation. […] The amount of the test agent in the supernatant was determined by liquid chromatography tandem mass spectrometry (LC/MS/MS).
Analysis. Samples were analyzed by LC/MS/MS using an Agilent 6410 mass spectrometer coupled with an Agilent 1200 high pressure liquid chromatography (HPLC) and a CTC PAL chilled autosampler, all controlled by MassHunter software (Agilent). After separation on a hydrophilic interaction liquid chromatography (HILIC) HPLC column (Sepax) using an acetonitrile-ammonium acetate/acetic acid gradient system, peaks were analyzed by mass spectrometry (MS) using ESI ionization in multiple reaction monitoring (MRM) mode. MassHunter software was used to calculate the concentration of the test compounds in samples from the peak area using the appropriate calibration curves.
Calibration samples. Calibration curves were determined for both rat plasma and brain homogenate. Calibration samples were prepared by diluting a 50× stock solution of the test compound in PBS with blank matrix to the appropriate concentration and these samples were prepared as described above in the sample preparation.

[1] = 0.75 mg/kg, Concentration of anatabine in rat plasma, Anatabine 0.75 mg/kg, rat plasma, rats of group 3
[2] = 0.75 mg/kg, Concentration of anatabine in rat plasma, Anatabine 0.75 mg/kg, rat plasma, rats of group 4
[3] = 1 mg/kg, Concentration of anatabine in rat plasma, Anatabine 1.0 mg/kg, rat plasma, rats of group 5
[4] = 1 mg/kg, Concentration of anatabine in rat plasma, Anatabine 1.0 mg/kg, rat plasma, rats of group 6
[5] = both sexes, 0.1 mg/kg, Anatabine 0.1 mg/kg, male and female, read-out: Avg. Conc. rat plasma, combined male and female
[6] = both sexes, 0.1 mg/kg, Concentration of anatabine in rat plasma, Anatabine 0.1 mg/kg, Rat Plasma, individual rats
[7] = both sexes, 0.75 mg/kg, Anatabine 0.75 mg/kg, male and female, read-out: Avg. Conc. rat plasma, combined male and female
[8] = both sexes, 1 mg/kg, Anatabine 1.0 mg/kg, male and female, read-out: Avg. Conc. rat plasma, combined male and female

SMILES: C1=CCC(c2cccnc2)NC1 (racemic) [Anatabine, 1,2,3,6-tetrahydro-[2,3′]bipyridinyl]
- Avg. Conc. rat plasma (Anatabine 0.1 mg/kg, female, 8 hr): <LLQ
- Avg. Conc. rat plasma (Anatabine 0.1 mg/kg, female, 24 hr): <LLQ
- Avg. Conc. rat plasma, combined male and female (Anatabine 0.1 mg/kg, male and female, 8 hr): <LLQ
- Avg. Conc. rat plasma, combined male and female (Anatabine 0.1 mg/kg, male and female, 24 hr): <LLQ
- Avg. Conc. rat plasma (Anatabine 0.1 mg/kg, male, 6 hr (1st 6 hr line)): <LLQ
- Avg. Conc. rat plasma (Anatabine 0.1 mg/kg, male, 8 hr): <LLQ
- Avg. Conc. rat plasma (Anatabine 0.1 mg/kg, male, 24 hr): <LLQ
- Avg. Conc. rat plasma (Anatabine 0.75 mg/kg, female, 24 hr): <LLQ
- Avg. Conc. rat plasma, combined male and female (Anatabine 0.75 mg/kg, male and female, 24 hr): <LLQ
- Avg. Conc. rat plasma (Anatabine 0.75 mg/kg, male, 24 hr): <LLQ
- Avg. Conc. rat plasma (Anatabine 1.0 mg/kg, female, 24 hr): <LLQ
- Avg. Conc. rat plasma, combined male and female (Anatabine 1.0 mg/kg, male and female, 24 hr): <LLQ
- Avg. Conc. rat plasma (Anatabine 1.0 mg/kg, male, 24 hr): <LLQ
- concentration at 4 h (0.1 mg/kg, Concentration of anatabine in rat plasma, Anatabine 0.1 mg/kg, Rat Plasma, individual rats): 3 ng/mL
- concentration at 6 h (0.1 mg/kg, Concentration of anatabine in rat plasma, Anatabine 0.1 mg/kg, rat plasma, 6 hr, rats 2A-2C): 3 ng/mL
- concentration at 1 h [1]: 153 ng/mL
- concentration at 1 h [2]: 146 ng/mL
- concentration at 2 h [1]: 73 ng/mL
- concentration at 2 h [2]: 89 ng/mL
- concentration at 4 h [1]: 29 ng/mL
- concentration at 4 h [2]: 45 ng/mL
- concentration at 8 h (0.75 mg/kg, Concentration of anatabine in rat plasma, Anatabine 0.75 mg/kg, rat plasma, 8 hr, rats of group 3): 8 ng/mL
- concentration at 8 h (0.75 mg/kg, Concentration of anatabine in rat plasma, Anatabine 0.75 mg/kg, rat plasma, 8 hr, rats of group 4): 10 ng/mL
- concentration at 0.5 h (1 mg/kg, Concentration of anatabine in rat plasma, Anatabine 1.0 mg/kg, rat plasma, 0.5 hr, rats of group 5): 288 ng/mL
- concentration at 0.5 h (1 mg/kg, Concentration of anatabine in rat plasma, Anatabine 1.0 mg/kg, rat plasma, 0.5 hr, rats of group 6): 222 ng/mL
- concentration at 1 h [3]: 257 ng/mL
- concentration at 1 h [4]: 218 ng/mL
- concentration at 2 h [3]: 121 ng/mL
- concentration at 2 h [4]: 147 ng/mL
- concentration at 4 h [3]: 36 ng/mL
- concentration at 4 h [4]: 73 ng/mL
- concentration at 6 h (1 mg/kg, Concentration of anatabine in rat plasma, Anatabine 1.0 mg/kg, rat plasma, 6 hr, rats of group 6): 33 ng/mL
- concentration at 8 h (1 mg/kg, Concentration of anatabine in rat plasma, Anatabine 1.0 mg/kg, rat plasma, 8 hr, rats of group 5): 8 ng/mL
- concentration at 8 h (1 mg/kg, Concentration of anatabine in rat plasma, Anatabine 1.0 mg/kg, rat plasma, 8 hr, rats of group 6): 19 ng/mL
- t1/2 (anatabine 0.1 mg/kg single i.v., female rats): 1.64 ± 0.59 h
- t1/2 (anatabine 0.75 mg/kg single i.v., male rats): 1.64 ± 0.12 h
- t1/2 (anatabine 0.75 mg/kg single i.v., rat plasma, M + F): 1.68 ± 0.09 h
- t1/2 (anatabine 1.0 mg/kg single i.v., rat plasma, M + F): 1.64 ± 0.25 h
- concentration at 0.5 h (both sexes, 0.1 mg/kg, Anatabine 0.1 mg/kg, male and female, 0.5 hr (1st 0.5 hr line), n=12, read-out: Avg. Conc. rat plasma, combined male and female): 22.9 ng/mL
- concentration at 1 h [5]: 8 ng/mL
- concentration at 2 h [5]: 8.7 ng/mL
- concentration at 4 h [5]: 5.2 ng/mL
- concentration at 6 h (both sexes, 0.1 mg/kg, Anatabine 0.1 mg/kg, male and female, 6 hr (1st 6 hr line), n=6, read-out: Avg. Conc. rat plasma, combined male and female): 4.3 ng/mL
- concentration at 6 h (both sexes, 0.1 mg/kg, Anatabine 0.1 mg/kg, male and female, 6 hr (2nd 6 hr line), n=4, read-out: Avg. Conc. rat plasma, combined male and female): 4.5 ng/mL
- concentration at 1 h [6]: 10 ng/mL
- concentration at 2 h [6]: 6 ng/mL
- concentration at 0.5 h (both sexes, 0.75 mg/kg, Anatabine 0.75 mg/kg, male and female, 0.5 hr (1st 0.5 hr line), n=12, read-out: Avg. Conc. rat plasma, combined male and female): 257 ng/mL
- concentration at 0.5 h (both sexes, 0.75 mg/kg, Anatabine 0.75 mg/kg, male and female, 0.5 hr (2nd 0.5 hr line), n=6, read-out: Avg. Conc. rat plasma, combined male and female): 328 ng/mL
- concentration at 1 h [7]: 162 ng/mL
- concentration at 2 h [7]: 91.7 ng/mL
- concentration at 4 h [7]: 40 ng/mL
- concentration at 6 h (both sexes, 0.75 mg/kg, Anatabine 0.75 mg/kg, male and female, 6 hr (1st 6 hr line), n=12, read-out: Avg. Conc. rat plasma, combined male and female): 19.3 ng/mL
- concentration at 6 h (both sexes, 0.75 mg/kg, Anatabine 0.75 mg/kg, male and female, 6 hr (2nd 6 hr line), n=6, read-out: Avg. Conc. rat plasma, combined male and female): 22.5 ng/mL
- concentration at 8 h (both sexes, 0.75 mg/kg, Anatabine 0.75 mg/kg, male and female, 8 hr, read-out: Avg. Conc. rat plasma, combined male and female): 10 ng/mL
- concentration at 0.5 h (both sexes, 1 mg/kg, Anatabine 1.0 mg/kg, male and female, 0.5 hr (1st 0.5 hr line), n=12, read-out: Avg. Conc. rat plasma, combined male and female): 319 ng/mL
- concentration at 0.5 h (both sexes, 1 mg/kg, Anatabine 1.0 mg/kg, male and female, 0.5 hr (2nd 0.5 hr line), n=6, read-out: Avg. Conc. rat plasma, combined male and female): 384 ng/mL
- concentration at 1 h [8]: 231 ng/mL
- concentration at 2 h [8]: 143 ng/mL
- concentration at 4 h [8]: 51.5 ng/mL
- concentration at 6 h (both sexes, 1 mg/kg, Anatabine 1.0 mg/kg, male and female, 6 hr (1st 6 hr line), n=12, read-out: Avg. Conc. rat plasma, combined male and female): 24.3 ng/mL
- concentration at 6 h (both sexes, 1 mg/kg, Anatabine 1.0 mg/kg, male and female, 6 hr (2nd 6 hr line), n=6, read-out: Avg. Conc. rat plasma, combined male and female): 25 ng/mL
- concentration at 8 h (both sexes, 1 mg/kg, Anatabine 1.0 mg/kg, male and female, 8 hr, read-out: Avg. Conc. rat plasma, combined male and female): 12.7 ng/mL
- half-life (both sexes, 0.1 mg/kg, anatabine 0.1 mg/kg single i.v., rat plasma, M + F, read-out: t1/2 (converted)): 1.44 ± 0.48 h
- half-life (both sexes, elimination half-life (t1/2), range over the anatabine treatment groups, anatabine 0.1-1.0 mg/kg single i.v., rats M + F): 1.64 to 1.68 h
- concentration at 0.5 h (female, 0.1 mg/kg, Anatabine 0.1 mg/kg, female, 0.5 hr (1st 0.5 hr line), read-out: Avg. Conc. rat plasma): 13 ng/mL
